Measured values as given in PMC7497253, “Structure‐Based Macrocyclization of Substrate Analogue NS2B‐NS3 Protease Inhibitors of Zika, West Nile and Dengue viruses” (Chemmedchem, 2020).
Read-outs that look alike come from different tables or passages of the source. Starred links: 1 amine or outer side, 2 acyl side, 3 side chain; linkers in the order of their positions; H or OH if unused. Positions of bridges follow the written chain, without caps; N, C: chain ends. Non-standard residues stand in square brackets, D forms with d. Residues, ends and D or L forms follow the SMILES beside them. dεLys(Nα-amidino) = N=C(N)N[C@H](CCCCN[*:1])C(=O)[*:2]; NHCH2(1,3-C6H4)CH2CO = O=C(Cc1cccc(CN[*:1])c1)[*:2]; βAla = NCCC(=O)O

What was measured:
Assay type in all cases: biochemical
[1] = target: T1, bZiPro (unlinked binary Zika virus NS2B-NS3 protease) (Zika virus, UniProt A0A024B7W1); assay: Enzyme kinetics with bZiPro, fluorogenic substrate Phac-Leu-Lys-Lys-Arg-AMC
T1 construct: The viral protease consists of the N‐terminal third of the nonstructural protein NS3; the NS2B construct ends at Glu96; His6 (cleaved yes); made in house
Protocol: (§1) Enzyme kinetics. Measurements with bZiPro15 and the covalent WNV NS2B‐NS3 construct^10 were performed at room temperature in black 96 well plates using a Fluoroskan Ascent® plate reader (Thermo Fisher Scientific, Vantaa, Finland) with λ ex at 355 nm and λ em at 460 nm. Each well contained 125 μL inhibitor dissolved in buffer (for bZiPro: 20 mM Tris×HCl pH 8.5, 2 mM DTT, 10 w/v glycerol and 0.01 w/v Triton X‐100;18 for WNV protease: 100 mM Tris×HCl pH 8.5, containing 32 w/v glycerol and 0.01 w/v Triton X‐10012) and 50 μL substrate Phac‐Leu‐Lys‐Lys‐Arg‐AMC12 (40 μM for bZiPro (10 μM in assay, K M=1.4 μM) and 400 μM for the WNV protease (100 μM in assay, K M=53 μM)). The measurements were started by addition of 25 μL enzyme solution (16 nM for bZiPro (2.0 nM in assay), and 64 nM for the WNV protease (8.0 nM in assay)). Data points were collected each 15 s over a period of 10 min using eight different inhibitor concentrations. […] The K i values and their standard deviation were obtained from at least three independent measurements.(1) vi=Vmax×[S]/KM1+[I]/Ki+[S]
The constants K M and V max were obtained from independent measurements with six different substrate concentrations in absence of inhibitor. For inhibitor 10 with bZiPro, additional measurements at three substrate concentrations (10, 5, and 2.5 μM in assay) were performed to obtain the Dixon plot shown in Figure 4.

[2] = target: T2, WNV NS2B-NS3 protease (WNV-Pro) (West Nile virus, UniProt P06935); assay: Enzyme kinetics with the covalent WNV NS2B-NS3 construct, substrate Phac-Leu-Lys-Lys-Arg-AMC
T2 construct: NS3 has to form a complex with its cofactor NS2B to achieve proteolytic activity; The viral protease consists of the N‐terminal third of the nonstructural protein NS3
Protocol: as §1

[3] = target: T3, bD4Pro (unlinked binary dengue-4 virus NS2B-NS3 protease) (Dengue virus type 4, UniProt Q2YHF2); assay: Enzyme kinetics with bD4Pro, substrate Benzoyl-Nle-Lys-Arg-Arg-AMC
T3 construct: The viral protease consists of the N‐terminal third of the nonstructural protein NS3; NS3 has to form a complex with its cofactor NS2B to achieve proteolytic activity; His6 (cleaved yes); made in house
T3 sequence (Q2YHF2 1475-1652 limits assumed): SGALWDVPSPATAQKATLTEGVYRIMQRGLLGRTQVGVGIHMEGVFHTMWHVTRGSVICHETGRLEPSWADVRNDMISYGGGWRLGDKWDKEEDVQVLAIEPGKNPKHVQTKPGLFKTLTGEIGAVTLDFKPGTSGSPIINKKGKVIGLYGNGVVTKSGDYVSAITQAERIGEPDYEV
T3 sequence (Q2YHF2 1397-1436 limits assumed): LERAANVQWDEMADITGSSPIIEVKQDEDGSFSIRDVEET
Protocol: Measurements with the dengue 4 virus protease construct (bD4Pro; expressed and purified by a similar methodology as described for bZiPro15 with slight modification of using Tobacco Etch Virus (TEV) protease instead of thrombin for His6‐tag cleavage) were performed in a Cytation 3 Mulitmode plate reader with λ ex at 380 nm and λ em at 460 nm. Assays were carried out as triplicate at 37 °C. Before measurement, the protease (final assay concentration 3 nM) was preincubated with varying concentrations of inhibitors in assay buffer (20 mM Tris pH 8.5, 10 % glycerol, 0.01 % Triton X‐100) for 1 h at room temperature in Corning black clear bottom 96‐well plates. The reaction was started by addition of the substrate Benzoyl‐Nle‐Lys‐Arg‐Arg‐AMC (final assay concentration 50 μM, K M=48.4 μM). Fluorescent readings were recorded at 1‐minute intervals over 10 minutes. The steady‐state rates v i in presence of inhibitor were calculated from the slopes of the progress curves using Graph Pad Prism. The v i values were fitted to Equation (2) as function of the inhibitor concentration [I] providing the IC50 values, where v 0 is the rate in absence of inhibitor and s a slope factor. The obtained IC50 values were finally converted into K i values by the Cheng‐Prusoff Equation (2).(2) vi=v0/1+I/IC50^s (3) Ki=IC50/1+S/KM

[4] = K i bZiPro, mean±SD of at least three independent measurements, substrate 10 μM in assay, room temperature, pH 8.5
[5] = mean±SD of at least three independent measurements, substrate 10 μM in assay, room temperature, pH 8.5, read-out: K i bZiPro
[6] = mean±SD of at least three independent measurements, substrate 100 μM in assay, room temperature, pH 8.5, read-out: K i WNV-Pro
[7] = mean±SD of at least three independent measurements, 37 °C, IC50 converted into K i by Cheng-Prusoff, read-out: K i bD4Pro

T1 sequence (A0A024B7W1 1503-1680 limits assumed): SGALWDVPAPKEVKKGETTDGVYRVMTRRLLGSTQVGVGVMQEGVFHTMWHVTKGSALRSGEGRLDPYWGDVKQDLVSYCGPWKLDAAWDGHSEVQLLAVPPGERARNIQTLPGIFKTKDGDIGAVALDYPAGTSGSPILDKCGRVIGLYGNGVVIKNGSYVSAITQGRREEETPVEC
T1 sequence (A0A024B7W1 1425-1464 limits assumed): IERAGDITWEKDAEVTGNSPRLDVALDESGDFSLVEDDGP
T2 sequence (P06935 1424-1463): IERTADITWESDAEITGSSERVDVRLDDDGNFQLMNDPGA
T2 sequence (P06935 1502-1679): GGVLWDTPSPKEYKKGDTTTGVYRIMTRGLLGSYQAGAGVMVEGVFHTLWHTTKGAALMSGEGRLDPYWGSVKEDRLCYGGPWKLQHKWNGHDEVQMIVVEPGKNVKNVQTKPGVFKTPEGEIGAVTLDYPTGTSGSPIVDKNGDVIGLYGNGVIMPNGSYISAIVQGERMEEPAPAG

SMILES | Ki [1, 4] [nM] | Ki [2] [nM] | Ki [3] [nM] | Ki [1, 5] [nM] | Ki [2, 6] [nM] | Ki [3, 7] [nM] | Ki ([1]; K i against bZiPro / ZIKV protease, value given in running text) [nM] | fold improved potency compared with 29 ([1]; uncharged amide analogue versus free P1 carboxyl compound 29)
C[C@H]1NC(=O)[C@H](NC(=N)N)CCCCNC(=O)[C@H](CCCCN)NC(=O)[C@H](CCCCN)NC(=O)Cc2cccc(c2)CNC1=O [Inhibitor 16] | 3.52 ± 1.09 | 237 ± 21 | 125 ± 4 | – | – | – | – | –
CC(=O)NCc1cccc(CC(=O)N[C@@H](CCCCN)C(=O)N[C@@H](CCCCN)C(=O)NCCCCCNC(=N)N)c1 [Inhibitor 32] | 88.2 ± 3.8 | 4940 ± 530 | 18100 ± 1200 | – | – | – | – | –
N=C(N)N[C@@H]1CCCCNC(=O)[C@H](CCCCN)NC(=O)[C@H](CCCCN)NC(=O)Cc2cccc(c2)NC(=O)CCCNC1=O [Inhibitor 14] | 106 ± 29 | 16500 ± 4600 | 5800 ± 360 | – | – | – | – | –
N=C(N)N[C@@H]1CCCCNC(=O)[C@H](CCCCN)NC(=O)[C@H](CCCCN)NC(=O)Cc2cccc(c2)CNC(=O)CCCNC1=O [Inhibitor 8] | 4.33 ± 0.35 | 702 ± 83 | 286 ± 9 | – | – | – | – | –
N=C(N)N[C@@H]1CCCCNC(=O)[C@H](CCCCN)NC(=O)[C@H](CCCCN)NC(=O)CCNC(=O)CNC(=O)CNC1=O [Inhibitor 26] (cyclo(GG[βAla]KK[dεLys(Nα-amidino)])) | – | – | – | 1.72 ± 0.03 | 68.6 ± 13.1 | 160 ± 5 | – | –
NCCCC[C@@H]1NC(=O)Cc2cccc(c2)CNC(=O)CNC(=O)[C@H](N)CCCCNC(=O)[C@H](CCCCN)NC1=O [Inhibitor 20] (H-[dK]G[NHCH2(1,3-C6H4)CH2CO]KK; lactam 1-C) | 23000 | 99000 | 282000 | – | – | – | – | –
N=C(N)N[C@H]1CC[C@H](CNC(=O)[C@H](CCCCN)NC(=O)[C@H](CCCCN)NC(=O)Cc2ccc(Cl)c(Cl)c2)CC1 [Inhibitor 1, 3,4‐dichloro‐Phac‐Lys‐Lys‐GCMA, reference compound] | – | – | – | – | – | – | 14 | –
N=C(N)N[C@@H]1CCCCNC(=O)[C@H](CCCCN)NC(=O)[C@H](CCCCN)NC(=O)CCCCNC(=O)CNC1=O [Inhibitor 23] | 16.7 ± 3.4 | 1220 ± 20 | 1120 ± 50 | – | – | – | – | –
N=C(N)N[C@@H]1CCCCNC(=O)[C@H](CCCCN)NC(=O)[C@H](CCCCN)NC(=O)CCCNC(=O)CNC1=O [Inhibitor 22] | 124 ± 8 | 6700 ± 520 | 6090 ± 470 | – | – | – | – | –
N=C(N)N[C@H]1CCCNC(=O)[C@H](CCCCN)NC(=O)[C@H](CCCCN)NC(=O)Cc2ccc(cc2)CNC(=O)CCCNC1=O [Inhibitor 3] | 846 ± 111 | 27800 ± 4400 | 117000 ± 5000 | – | – | – | – | –
N=C(N)N[C@@H]1CCCCNC(=O)[C@H](CCCCN)NC(=O)[C@H](CCCCN)NC(=O)Cc2cccc(c2)CNC1=O [Inhibitor 12] | 37.3 ± 4.7 | 15300 ± 800 | 1280 ± 50 | – | – | – | – | –
N=C(N)N[C@H](CCCCNC(=O)[C@H](CCCCN)NC(=O)[C@H](CCCCN)NC(=O)Cc1cccc(CNC(=O)CN)c1)C(N)=O [Inhibitor 30] | 13.6 ± 2.6 | 1550 ± 380 | 775 ± 47 | – | – | – | – | more than 100 fold
CC(=O)NCc1cccc(CC(=O)N[C@@H](CCCCN)C(=O)N[C@@H](CCCCN)C(=O)NCCCC[C@@H](NC(=N)N)C(N)=O)c1 [Inhibitor 31] | 9.48 ± 0.61 | 1480 ± 100 | 1210 ± 90 | – | – | – | – | –
NCCCC[C@@H]1NC(=O)Cc2ccc(cc2)CNC(=O)CCCNC(=O)[C@H](N)CCCCNC(=O)[C@H](CCCCN)NC1=O [Inhibitor 6] | – | – | – | 24700 ± 7200 | 68100 ± 5000 | 94500 ± 11600 | – | –
CC(C)[C@@H]1NC(=O)[C@H](NC(=N)N)CCCCNC(=O)[C@H](CCCCN)NC(=O)[C@H](CCCCN)NC(=O)Cc2cccc(c2)CNC1=O [Inhibitor 17] | 42.8 ± 2.2 | 6710 ± 320 | 2810 ± 180 | – | – | – | – | –
